# Measured values published in patent publication US5416231A, “Prostaglandin I2 derivatives” (Asahi Glass Company, Ltd., priority 1990, dated 1995).
# Where a name gives a salt, the structure may show the parent alone.
# Columns and labels:
# [1] = tested on: vasopressin-induced ST depression; assay: Anti-anginal activities (Preventive activities on vasopressin-induced ST depression); type: in vivo, male rat (Donryou strain); conditions: for Oral administration MED (minimum effective dose showing a significant preventive activity) / minimal effective dose: 30 minutes prior to vasopressin (0.2 IU/kg), oral; for minimal effective dose: Rattus norvegicus, read-out: Oral administration MED (minimum effective dose showing a significant preventive activity)
# Protocol: Vasopressin (0.2 IU/kg) was administered from the femoral vein of a male rat (Donryou strain) anesthetized with pentobarbital, and the electrocardiogram was recorded for 5 seconds each at intervals of 30 seconds over a period of 5 minutes after the administration. The depression of ST-segment (the average of five pulses) was calculated on the electrocardiogram. The test compound was dissolved in ethanol and intravenously administered 2 minutes prior to the administration of vasopressin, or after being dissolved in ethanol, suspended in a 0.5% tragacanth solution or in a 1% β-cyclodextrin solution and orally administered 30 minutes prior to the administration of vasopressin. The differences of the ST depression between the test compound-administered group and the non-treated control group (5 animals for each group) were analysed by two-way layout analysis of variance.
# [2] = tested on: platelet aggregation; assay: Inhibitory activities on platelet aggregation, in vitro (ADP-induced); type: cell-based, guinea pig (Hartley strain); conditions: platelet rich plasma, 10 minutes incubation, adenosine diphosphate 1 micro M; for IC50: Cavia porcellus, Platelet, 10 min
# Protocol: (§1) From a guinea pig (Hartley strain), citric acid-added blood was obtained by a cardiac puncture. The blood was centrifuged at 120×g for 10 minutes, and the supernatant platelet rich plasma was separated. Measurement of platelet aggregation was conducted by means of an aggregometer in accordance with the Bone's nephelometry (G. V. R. Bone; Nature, vol 194, p 927, 1962). In a test in vitro, a test compound was added to the platelet rich plasma, and the mixture was incubated for 10 minutes. Then, adensoine diphosphate (1 micro M) was added to induce platelet aggregation. The degree of aggregation was represented by the maximum change in the light transmittance (the maximum aggregation rate) within 5 minutes after the addition of adenosine diphosphate, and the results are shown by a 50% inhibitory concentration. In a test ex vivo, a test compound was dissolved in ethanol, then suspended in a 0.5% tragacanth solution or in a 1% β-cyclodextrin solution and orally administered. From blood obtained by a cardiac puncture 30 minutes after the administration, a platelet rich plasma was prepared, and platelet aggregation was measured in the same manner as in the case of the test in vitro.
# [3] = tested on: platelet aggregation; assay: Inhibitory activities on platelet aggregation, ex vivo after oral administration (ADP-induced); type: in vivo, guinea pig (Hartley strain); conditions: 30 minutes after administration; for minimal effective dose: Cavia porcellus, Platelet, 0.5 h, read-out: ex vivo MED (minimum effective dose showing significant inhibitory effects, P < 0.05)
# Protocol: as §1
# [4] = tested on: male mice of ddY strain; assay: Acute toxicity, oral; type: in vivo; conditions: 20 mg/kg, 1% β-cyclodextrin solution, 7 days
# Protocol: To male mice of ddY strain weighing 25-32 g (five animals per each group), a predetermined dose of a test compound dissolved in a small amount of ethanol and then diluted with a 1% β-cyclodextrin solution, was orally administered, and the mortality was recorded over a period of 7 days after the administration.
# [5] = Solvent Y: 1% β-cyclodextrin solution
# [6] = Solvent X: 0.5% tragacanth solution
Compound,IC50 [2] [ng/mL],"minimal effective dose [3, 5] [mg/kg]",in vitro IC50 [2] [ng/mL],other results
"CCCCC(C)C[C@H](O)/C=C/[C@@H]1[C@@H]2[C@H](C[C@H]1O)O/C(=C\C1CC(C(=O)O)C1)[C@@H]2F (single isomer, unassigned) [Compound E-a, sodium salt of 2,4-methylene-7α-fluoro-17,20-dimethylPGI2]",1.13,–,–,"Oral administration MED (minimum effective dose showing a significant preventive activity) [1, 5]: 0.1 mg/kg"
"CCCCC(C)C[C@H](O)/C=C/[C@@H]1[C@@H]2[C@H](C[C@H]1O)O/C(=C\C1CC(C(=O)O)C1)[C@@H]2F (single isomer, unassigned) [Compound E-b, sodium salt of 2,4-methylene-7α-fluoro-17,20-dimethylPGI2]",–,0.3,1.70,"Number of dead animals/Number of test animals [4]: 0/5; minimal effective dose [1, 5]: 0.1 mg/kg"
"CCCCC(C)C[C@H](O)/C=C/[C@@H]1[C@@H]2[C@H](C[C@H]1O)O/C(=C\CC1CC1C(=O)O)[C@@H]2F (stereo partly drawn) [Compound A, sodium salt of 2,3-methylene-7α-fluoro-17,20-dimethylPGI2]",18.3,–,–,–
"CCCCC(C)C[C@H](O)/C=C/[C@@H]1[C@@H]2[C@H](C[C@H]1O)O/C(=C\C1CC(C(=O)OC)C1)[C@@H]2F (stereo partly drawn) [Compound D-a, methyl ester of 2,4-methylene-7α-fluoro-17,20-dimethylPGI2]",2.88,0.3,–,–
"CCCCC(C)C[C@H](O)/C=C/[C@@H]1[C@@H]2[C@H](C[C@H]1O)O/C(=C\C1CC(C(=O)OC)C1)[C@@H]2F (stereo partly drawn) [Compound D-b, methyl ester of 2,4-methylene-7α-fluoro-17,20-dimethylPGI2]",–,–,1.50,"ex vivo MED (minimum effective dose showing significant inhibitory effects, P < 0.05) [3, 5]: 0.3 mg/kg; Number of dead animals/Number of test animals [4]: 0/5; minimal effective dose [1, 5]: 0.1 mg/kg"
"CCCCC[C@H](O)/C=C/[C@@H]1[C@H]2C/C(=C/CCCC(=O)O)O[C@H]2C[C@H]1O [Compound F, natural PGI2, reference compound]",–,> 10,–,–
"methyl ester of (1S*,3R*)-2,4-ethylene-7α-flouro-17,20-dimethylPGI2 [Compound C]",–,–,5.50,–
"methyl ester of (1S*,3S*)-2,4-ethylene-7α-fluoro-17,20-dimethylPGI2 [Compound B-b]",–,–,0.87,"ex vivo MED (minimum effective dose showing significant inhibitory effects, P < 0.05) [3, 6]: 0.3 mg/kg; Intravenous administration MED (minimum effective dose showing a significant preventive activity) ([1]; intravenous, in ethanol, 2 minutes prior to vasopressin (0.2 IU/kg)): 1 µg/kg; Oral administration MED (minimum effective dose showing a significant preventive activity) [1, 6]: 0.01 mg/kg"
